Laboratory results from ChEMBL document CHEMBL4414679, “Discovery of 4,6-pyrimidinediamine derivatives as novel dual EGFR/FGFR inhibitors aimed EGFR/FGFR1-positive NSCLC” (Eur J Med Chem, 2020).
Calls of active or inactive are those of the source. The calls are words filed in the database; no cut-off is given here.

Key:
HCC827 = assay: Antiproliferative activity against human HCC827 cells incubated for 48 hrs by MTT assay; format: functional, cell-based; conditions: HCC827, 48 h
[1] = molecular target: T1, Epidermal growth factor receptor (Homo sapiens, UniProt P00533); assay: Inhibition of N-terminal GST-tagged human EGFR cytoplasmic domain (669-1210 AA) expressed in baculovirus using FAM-labelled peptide as substrate pre-incubated for 10 mins followed by substrate addition by mobility shift assay
T1 sequence (P00533 whole entry, the tested form may be a part): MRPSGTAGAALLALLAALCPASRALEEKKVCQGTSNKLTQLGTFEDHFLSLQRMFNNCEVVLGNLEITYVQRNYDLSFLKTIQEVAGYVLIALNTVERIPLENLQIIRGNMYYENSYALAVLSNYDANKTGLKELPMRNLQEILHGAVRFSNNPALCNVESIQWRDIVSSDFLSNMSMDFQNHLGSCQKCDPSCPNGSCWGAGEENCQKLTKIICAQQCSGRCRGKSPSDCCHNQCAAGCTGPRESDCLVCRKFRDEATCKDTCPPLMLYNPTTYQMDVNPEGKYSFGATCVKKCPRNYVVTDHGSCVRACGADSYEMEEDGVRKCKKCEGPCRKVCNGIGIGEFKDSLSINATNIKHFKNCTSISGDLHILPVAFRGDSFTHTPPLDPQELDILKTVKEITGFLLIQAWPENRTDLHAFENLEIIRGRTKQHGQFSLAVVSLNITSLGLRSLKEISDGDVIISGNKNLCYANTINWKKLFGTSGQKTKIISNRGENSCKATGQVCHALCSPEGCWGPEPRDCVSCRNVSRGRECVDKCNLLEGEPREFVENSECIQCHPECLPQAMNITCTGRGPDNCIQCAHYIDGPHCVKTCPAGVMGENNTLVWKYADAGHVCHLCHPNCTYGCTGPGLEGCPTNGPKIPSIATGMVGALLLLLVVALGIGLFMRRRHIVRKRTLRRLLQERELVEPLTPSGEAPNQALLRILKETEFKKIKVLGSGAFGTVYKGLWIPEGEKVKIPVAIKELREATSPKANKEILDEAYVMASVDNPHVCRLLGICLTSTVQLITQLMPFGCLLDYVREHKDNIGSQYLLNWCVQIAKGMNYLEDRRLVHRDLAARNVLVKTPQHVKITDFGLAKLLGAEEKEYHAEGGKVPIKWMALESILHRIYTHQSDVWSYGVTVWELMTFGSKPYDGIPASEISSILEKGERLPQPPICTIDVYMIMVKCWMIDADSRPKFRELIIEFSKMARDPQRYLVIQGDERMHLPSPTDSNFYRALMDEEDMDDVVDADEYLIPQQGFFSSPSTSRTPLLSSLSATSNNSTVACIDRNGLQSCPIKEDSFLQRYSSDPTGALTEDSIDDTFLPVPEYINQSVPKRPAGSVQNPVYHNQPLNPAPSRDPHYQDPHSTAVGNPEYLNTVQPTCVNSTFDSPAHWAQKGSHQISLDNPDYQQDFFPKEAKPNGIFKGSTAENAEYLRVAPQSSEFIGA

[2] = molecular target: Fibroblast growth factor receptor 4 (Homo sapiens) (UniProt P22455); assay: Inhibition of N-terminal GST tagged human FGFR4 cytoplasmic domain (460 to 802 AA) expressed in baculovirus at 10 uM using FAM-labelled peptide as substrate pre-incubated for 10 mins followed by substrate addition by mobility shift assay relative to control
NCI-H226 [3] = assay: Inhibition of colony formation in human NCI-H226 cells measured after 24 hrs by crystal violet staining based assay; format: functional, cell-based
NCI-H226 [4] = assay: Induction of apoptosis in human NCI-H226 cells assessed as early apoptotic cells at 5 uM measured after 24 hrs by Annexin-V/propidium iodide staining-based flow cytometric analysis (reference value: 0.8%); format: functional
[5] = Induction of apoptosis in gefitinib-insensitive human HCC827GR cells assessed as viable cells at 1 uM measured after 24 hrs by Annexin-V/propidium iodide staining-based flow cytometric analysis (reference value: 90.8%); format: functional; conditions: read-out: Activity
[6] = molecular target: T2, Fibroblast growth factor receptor 1 (Homo sapiens, UniProt P11362); assay: Inhibition of N-terminal GST-tagged human FGFR1 cytoplasmic domain (398-822 AA) expressed in baculovirus using FAM-labelled peptide as substrate pre-incubated for 10 mins followed by substrate addition by mobility shift assay
Target sequence in this assay (P11362 whole entry, the tested form may be a part): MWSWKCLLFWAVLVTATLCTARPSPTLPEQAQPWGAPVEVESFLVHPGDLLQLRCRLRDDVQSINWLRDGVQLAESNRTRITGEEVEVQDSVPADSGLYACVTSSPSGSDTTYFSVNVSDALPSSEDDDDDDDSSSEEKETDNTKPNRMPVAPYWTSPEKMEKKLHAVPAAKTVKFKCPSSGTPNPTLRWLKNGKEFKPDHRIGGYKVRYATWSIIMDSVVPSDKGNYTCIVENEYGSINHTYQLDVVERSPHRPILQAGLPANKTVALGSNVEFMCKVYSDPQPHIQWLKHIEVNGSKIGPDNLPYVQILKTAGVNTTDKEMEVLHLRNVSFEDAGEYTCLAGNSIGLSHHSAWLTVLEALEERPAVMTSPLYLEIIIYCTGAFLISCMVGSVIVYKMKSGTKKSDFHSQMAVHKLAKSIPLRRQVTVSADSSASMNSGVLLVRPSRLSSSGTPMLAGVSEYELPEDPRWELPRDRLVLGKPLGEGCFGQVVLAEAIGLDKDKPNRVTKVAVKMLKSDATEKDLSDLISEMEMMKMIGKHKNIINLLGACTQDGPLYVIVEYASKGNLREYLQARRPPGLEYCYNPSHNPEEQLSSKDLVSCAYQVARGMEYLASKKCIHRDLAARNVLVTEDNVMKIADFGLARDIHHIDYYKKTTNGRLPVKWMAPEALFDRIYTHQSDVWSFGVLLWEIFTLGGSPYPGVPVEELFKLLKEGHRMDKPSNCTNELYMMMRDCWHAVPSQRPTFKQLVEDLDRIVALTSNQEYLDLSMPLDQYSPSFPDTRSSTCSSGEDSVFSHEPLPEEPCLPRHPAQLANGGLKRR

NCI-H226 [7] = assay: Induction of apoptosis in human NCI-H226 cells assessed as early apoptotic cells at 10 uM measured after 24 hrs by Annexin-V/propidium iodide staining-based flow cytometric analysis (reference value: 0.8%); format: functional
[8] = AUC (0 to infinity) in Sprague-Dawley rat at 30 mg/kg, po measured upto 24 hrs by UPLC-MS/MS; format: ADME, organism-based; parameters: dose 30 mg/kg, route oral, time infinity; conditions: in vivo
[9] = molecular target: Platelet-derived growth factor receptor beta (Homo sapiens) (UniProt P09619); assay: Inhibition of N-terminal GST tagged human PDGFRbeta cytoplasmic domain (557 to 1106 AA) expressed in baculovirus at 10 uM using FAM-labelled peptide as substrate pre-incubated for 10 mins followed by substrate addition by mobility shift assay relative to control
Chain of Platelet-derived growth factor receptor beta (Homo sapiens) (P09619 whole entry, the tested form may be a part): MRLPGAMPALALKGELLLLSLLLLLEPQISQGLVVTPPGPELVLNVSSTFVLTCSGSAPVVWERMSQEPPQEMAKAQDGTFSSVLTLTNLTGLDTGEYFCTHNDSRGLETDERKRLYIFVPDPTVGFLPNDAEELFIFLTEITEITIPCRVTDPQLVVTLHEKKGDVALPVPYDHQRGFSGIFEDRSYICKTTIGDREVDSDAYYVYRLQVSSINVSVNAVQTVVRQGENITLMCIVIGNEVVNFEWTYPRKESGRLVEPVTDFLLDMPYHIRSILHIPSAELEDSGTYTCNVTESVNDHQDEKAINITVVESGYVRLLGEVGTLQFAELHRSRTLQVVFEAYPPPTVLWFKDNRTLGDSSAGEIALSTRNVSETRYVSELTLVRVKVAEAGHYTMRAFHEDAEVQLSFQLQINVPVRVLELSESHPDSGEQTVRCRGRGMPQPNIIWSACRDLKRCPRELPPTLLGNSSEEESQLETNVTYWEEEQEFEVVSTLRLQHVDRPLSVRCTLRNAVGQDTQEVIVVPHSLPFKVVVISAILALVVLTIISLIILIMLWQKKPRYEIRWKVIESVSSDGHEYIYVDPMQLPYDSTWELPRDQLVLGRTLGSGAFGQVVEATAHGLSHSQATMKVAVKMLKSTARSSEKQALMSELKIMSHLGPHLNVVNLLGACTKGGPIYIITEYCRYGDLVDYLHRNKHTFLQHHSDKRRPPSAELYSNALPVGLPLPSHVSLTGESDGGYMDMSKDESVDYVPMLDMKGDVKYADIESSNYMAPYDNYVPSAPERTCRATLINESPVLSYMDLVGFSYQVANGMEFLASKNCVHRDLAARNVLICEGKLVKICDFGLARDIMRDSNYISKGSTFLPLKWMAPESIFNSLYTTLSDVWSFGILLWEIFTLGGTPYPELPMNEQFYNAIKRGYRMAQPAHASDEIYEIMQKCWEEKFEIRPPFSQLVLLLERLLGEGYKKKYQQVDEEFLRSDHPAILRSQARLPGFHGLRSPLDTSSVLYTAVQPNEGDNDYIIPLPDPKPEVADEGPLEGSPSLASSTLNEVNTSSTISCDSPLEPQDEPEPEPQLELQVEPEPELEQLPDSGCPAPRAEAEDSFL

[10] = MRT in Sprague-Dawley rat at 30 mg/kg, po measured upto 24 hrs by UPLC-MS/MS; format: ADME, organism-based; conditions: in vivo
NCI-H226 [11] = assay: Induction of apoptosis in human NCI-H226 cells assessed as necrotic cells at 10 uM measured after 24 hrs by Annexin-V/propidium iodide staining-based flow cytometric analysis (reference value: 3%); format: functional
[12] = Induction of apoptosis in gefitinib-insensitive human HCC827GR cells assessed as viable cells at 10 uM measured after 24 hrs by Annexin-V/propidium iodide staining-based flow cytometric analysis (reference value: 90.8%); format: functional; conditions: read-out: Activity
NCI-H226 [13] = assay: Induction of apoptosis in human NCI-H226 cells assessed as necrotic cells at 5 uM measured after 24 hrs by Annexin-V/propidium iodide staining-based flow cytometric analysis (reference value: 3%); format: functional
PC-9 = assay: Antiproliferative activity against human PC9 cells assessed as inhibition of cell growth at 10 uM incubated for 48 hrs by MTT assay relative to control; format: functional; conditions: PC-9, 48 h
[14] = Induction of apoptosis in gefitinib-insensitive human HCC827GR cells assessed as viable cells at 5 uM measured after 24 hrs by Annexin-V/propidium iodide staining-based flow cytometric analysis (reference value: 90.8%); format: functional; conditions: read-out: Activity
[15] = molecular target: Inhibitor of nuclear factor kappa-B kinase subunit beta (Homo sapiens) (UniProt O14920); assay: Inhibition of N-terminal GST tagged truncated human IKKbeta (1 to 662 AA) expressed in baculovirus at 10 uM using FAM-labelled peptide as substrate pre-incubated for 10 mins followed by substrate addition by mobility shift assay relative to control
Chain of Inhibitor of nuclear factor kappa-B kinase subunit beta (Homo sapiens) (O14920 whole entry, the tested form may be a part): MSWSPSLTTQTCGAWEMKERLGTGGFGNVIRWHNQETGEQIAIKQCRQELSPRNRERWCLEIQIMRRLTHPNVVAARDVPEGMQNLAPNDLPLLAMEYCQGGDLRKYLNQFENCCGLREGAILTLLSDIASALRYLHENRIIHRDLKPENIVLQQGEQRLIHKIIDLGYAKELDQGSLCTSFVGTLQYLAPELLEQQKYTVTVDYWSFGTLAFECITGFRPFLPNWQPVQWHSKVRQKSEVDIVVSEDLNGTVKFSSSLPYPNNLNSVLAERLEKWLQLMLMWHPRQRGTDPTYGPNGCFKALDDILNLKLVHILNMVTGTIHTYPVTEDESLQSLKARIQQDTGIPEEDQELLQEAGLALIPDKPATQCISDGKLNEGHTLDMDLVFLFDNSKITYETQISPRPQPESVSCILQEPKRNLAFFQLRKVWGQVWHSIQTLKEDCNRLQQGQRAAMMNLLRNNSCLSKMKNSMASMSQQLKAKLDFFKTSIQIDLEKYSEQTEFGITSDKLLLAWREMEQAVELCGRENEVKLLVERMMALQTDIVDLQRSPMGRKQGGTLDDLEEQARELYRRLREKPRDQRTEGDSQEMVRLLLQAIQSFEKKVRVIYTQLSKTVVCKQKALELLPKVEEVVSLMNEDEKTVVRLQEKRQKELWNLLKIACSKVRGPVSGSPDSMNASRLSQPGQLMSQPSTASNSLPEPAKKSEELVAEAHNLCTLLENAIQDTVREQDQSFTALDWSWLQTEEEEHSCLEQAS

[16] = molecular target: Wee1-like protein kinase (Homo sapiens) (UniProt P30291); assay: Inhibition of N-terminal GST tagged human WEE1 catalytic domain (215 to 646 AA) expressed in baculovirus at 10 uM using FAM-labelled peptide as substrate pre-incubated for 10 mins followed by substrate addition by mobility shift assay relative to control
Chain of Wee1-like protein kinase (Homo sapiens) (P30291 whole entry, looked up, the tested form may be a part): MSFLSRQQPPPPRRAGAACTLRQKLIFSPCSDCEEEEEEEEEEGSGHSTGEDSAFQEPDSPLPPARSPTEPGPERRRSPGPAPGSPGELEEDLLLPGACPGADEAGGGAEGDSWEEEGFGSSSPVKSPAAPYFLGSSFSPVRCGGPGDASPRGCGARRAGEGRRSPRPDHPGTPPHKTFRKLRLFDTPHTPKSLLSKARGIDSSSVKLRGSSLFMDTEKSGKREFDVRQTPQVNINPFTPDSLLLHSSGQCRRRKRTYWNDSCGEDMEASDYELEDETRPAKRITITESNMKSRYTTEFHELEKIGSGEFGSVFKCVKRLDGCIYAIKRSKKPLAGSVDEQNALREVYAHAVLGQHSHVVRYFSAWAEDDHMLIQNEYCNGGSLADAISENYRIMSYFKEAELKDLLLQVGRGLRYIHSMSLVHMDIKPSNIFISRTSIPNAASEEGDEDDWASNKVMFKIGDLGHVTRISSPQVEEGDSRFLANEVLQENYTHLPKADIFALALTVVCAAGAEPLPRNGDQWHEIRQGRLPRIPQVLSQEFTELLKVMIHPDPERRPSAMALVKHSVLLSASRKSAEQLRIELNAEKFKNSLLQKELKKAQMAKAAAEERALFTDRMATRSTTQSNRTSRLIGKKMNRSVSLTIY

NCI-H226 [17] = assay: Induction of apoptosis in human NCI-H226 cells assessed as viable cells at 1 uM measured after 24 hrs by Annexin-V/propidium iodide staining-based flow cytometric analysis (reference value: 93.4%); format: functional; conditions: NCI-H226, 24 h, read-out: Activity
[18] = Tmax in Sprague-Dawley rat at 30 mg/kg, po measured upto 24 hrs by UPLC-MS/MS; format: ADME, organism-based; conditions: in vivo
[19] = molecular target: T1, Epidermal growth factor receptor; assay: Inhibition of N-terminal GST-tagged human EGFR (d746-750AA) expressed in baculovirus at 10 uM using FAM-labelled peptide as substrate pre-incubated for 10 mins followed by substrate addition by mobility shift assay relative to control
[20] = Induction of apoptosis in gefitinib-insensitive human HCC827GR cells assessed as early apoptotic cells at 2.5 uM measured after 24 hrs by Annexin-V/propidium iodide staining-based flow cytometric analysis (reference value: 1.9%); format: functional
[21] = molecular target: Mitogen-activated protein kinase 1 (Homo sapiens) (UniProt P28482); assay: Inhibition of full length N-terminal GST-tagged human ERK2 (1 to 360 AA) expressed in Escherichia coli at 10 uM using FAM-labelled peptide as substrate pre-incubated for 10 mins followed by substrate addition by mobility shift assay relative to control
Chain of Mitogen-activated protein kinase 1 (Homo sapiens) (P28482 whole entry, the tested form may be a part): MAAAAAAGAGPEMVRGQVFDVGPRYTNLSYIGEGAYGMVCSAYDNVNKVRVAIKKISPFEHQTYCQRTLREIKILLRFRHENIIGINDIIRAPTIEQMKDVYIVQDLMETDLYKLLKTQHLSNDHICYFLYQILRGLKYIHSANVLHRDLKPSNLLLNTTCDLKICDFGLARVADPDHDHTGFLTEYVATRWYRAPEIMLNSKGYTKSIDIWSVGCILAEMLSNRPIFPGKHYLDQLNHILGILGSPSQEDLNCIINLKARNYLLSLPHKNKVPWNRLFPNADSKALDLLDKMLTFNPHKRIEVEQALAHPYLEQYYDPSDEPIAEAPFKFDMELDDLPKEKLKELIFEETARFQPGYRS

NCI-H226 [22] = assay: Induction of apoptosis in human NCI-H226 cells assessed as early apoptotic cells at 1 uM measured after 24 hrs by Annexin-V/propidium iodide staining-based flow cytometric analysis (reference value: 0.8%); format: functional
[23] = molecular target: T2, Fibroblast growth factor receptor 1; assay: Inhibition of FGFR1 in gefitinib-insensitive human HCC827GR cells assessed as reduction in FGF-induced Akt phosphorylation upto 10 uM measured after 2 hrs by western blot analysis
[24] = Induction of apoptosis in gefitinib-insensitive human HCC827GR cells assessed as early apoptotic cells at 10 uM measured after 24 hrs by Annexin-V/propidium iodide staining-based flow cytometric analysis (reference value: 1.9%); format: functional
[25] = Induction of apoptosis in gefitinib-insensitive human HCC827GR cells assessed as late apoptotic cells at 10 uM measured after 24 hrs by Annexin-V/propidium iodide staining-based flow cytometric analysis (reference value: 1.5%); format: functional
[26] = molecular target: T1, Epidermal growth factor receptor; assay: Inhibition of N-terminal GST-tagged human EGFR cytoplasmic domain (669-1210 AA) expressed in baculovirus at 10 uM using FAM-labelled peptide as substrate pre-incubated for 10 mins followed by substrate addition by mobility shift assay relative to control
[27] = Induction of apoptosis in gefitinib-insensitive human HCC827GR cells assessed as necrotic cells at 1 uM measured after 24 hrs by Annexin-V/propidium iodide staining-based flow cytometric analysis (reference value: 5.8%); format: functional
NCI-H226 [28] = assay: Induction of apoptosis in human NCI-H226 cells assessed as viable cells at 5 uM measured after 24 hrs by Annexin-V/propidium iodide staining-based flow cytometric analysis (reference value: 93.4%); format: functional; conditions: NCI-H226, 24 h, read-out: Activity

In the case of COc1ccc(OC)c(Nc2cc(NC(=O)Nc3c(Cl)cccc3Cl)ncn2)c1, the IC50 (HCC827) is reported as 1.25 µM, the IC50 [1] is reported as 0.202 µM and the inhibition [2] is reported as 12.3%. For the same compound, the inhibition (NCI-H226 [3]) was “Dose-dependent effect”, the Activity (NCI-H226 [4]) was 6.3% and the viability at 1 µM [5] was 79.5%. It also gave an IC50 [6] of 0.808 µM, an Activity (NCI-H226 [7]) of 4.4% and an AUC(0-inf) [8] of 13000 ng·h/mL. For the same compound, the inhibition [9] was 56.2%, the MRT [10] was 6.73 h and the Activity (NCI-H226 [11]) was 11.8%. For the same compound, the viability at 10 µM [12] was 51.5%, the Activity (NCI-H226 [13]) was 5.2% and the inhibition at 10 µM (PC-9) was 95%. It also gave a viability at 5 µM [14] of 68.9%, an inhibition [15] of -0.73% and an inhibition [16] of 28%. It also gave a viability at 1 µM (NCI-H226 [17]) of 87.7%, a Tmax [18] of 1.5 h and an inhibition [19] of 95.8%. It also gave an Activity [20] of 2.5%, an inhibition [21] of 9.1% and an Activity (NCI-H226 [22]) of 3%. The inhibition [23] was “Active”, the Activity [24] was 13% and the Activity [25] was 30.1%. For the same compound, the inhibition [26] was 92.7%, the Activity [27] was 3.6% and the viability at 5 µM (NCI-H226 [28]) was 79.6%.
